From patent US20220324862A1, “PYRIDOPYRIMIDINONE COMPOUNDS” (Acerand Therapeutics (USA) Limited, priority 2021, published 2022)

biological target: T1, protein-protein interaction between SOS1 and KRAS-G12D (Homo sapiens, UniProt Q07889); assay: HTRF Based Protein-Protein Interaction Assay; format: binding; conditions: HTRF; GST-SOS1 2.5 nM, KRAS-G12D 100 nM, GDP 10 uM; read-out: IC50 value, inhibition of SOS1/KRAS-G12D protein-protein interaction
T1 construct: The purified GST-SOS1 catalytic domain (residues 564-1049) was first diluted in assay buffer; made in house; host or cells: E. coli BL21 (DE3) for SOS1; E. coli BL21 carrying a BirA plasmid for KRAS-G12D
T1 sequence (Q07889 564-1049): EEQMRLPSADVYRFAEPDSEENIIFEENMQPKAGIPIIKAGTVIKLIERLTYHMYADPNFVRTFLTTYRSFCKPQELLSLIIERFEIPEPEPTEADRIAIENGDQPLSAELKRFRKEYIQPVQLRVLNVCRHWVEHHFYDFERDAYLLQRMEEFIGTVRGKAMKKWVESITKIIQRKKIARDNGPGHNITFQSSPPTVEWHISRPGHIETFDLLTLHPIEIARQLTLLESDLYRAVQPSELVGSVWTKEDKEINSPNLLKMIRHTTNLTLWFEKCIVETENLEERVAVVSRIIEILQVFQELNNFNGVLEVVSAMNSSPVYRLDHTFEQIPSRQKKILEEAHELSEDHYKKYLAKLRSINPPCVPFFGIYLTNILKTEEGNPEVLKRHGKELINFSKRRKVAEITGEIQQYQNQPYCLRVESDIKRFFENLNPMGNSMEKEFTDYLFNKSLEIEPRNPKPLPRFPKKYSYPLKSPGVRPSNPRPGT
Description: A KRAS-G12D and SOS1 binding/interaction assay was designed to measure the interaction between KRAS-G12D and SOS1 proteins. Utilizing HTRF (Homogeneous Time-Resolved Fluorescence) technology, the assay enabled simple and rapid characterization of compound and protein interaction in a high throughput format. This assay was used to examine potency of the compounds in inhibiting the protein-protein interaction between SOS1 and KRAS-G12D. […] Low IC50 values are indicative of high potency of the SOS1 inhibitor compound to disrupt SOS1 and Kras-G12D interaction.
Protein Expression and Purification. The corresponding gene sequence to human SOS1 (residues 564-1049, UniProt ID: Q07889; SEQ ID NO: 2) was synthesized and fused in frame with GST expression vector. After the desired sequence was confirmed, plasmid containing the sequence was transformed into the E. coli strain BL21 (DE3). Bacteria were growing at 37° C. in LB media containing 50 μg/ml Kanamycin to give OD600 of 0.6-0.8. Then 0.2 mM IPTG was added to induce protein expression for 16 hours at 17° C. Bacteria were harvested by centrifugation and stored at −80° C. Bacteria pellets were resuspended in lysis buffer (25 mM Tris-HCl, 500 mM NaCl, 2 mM DTT, 2.3% sucrose, 0.3% dextran-10, 1 mM PMSF, pH 7.5) and lysed using high-pressure homogenizer. The lysate was cleared by centrifugation for 30 minutes (12000 rpm at 4° C.). The supernatant containing GST-SOS1 fragment was purified sequentially through Glutathione column and gel filtration (Hiload 16/600 Superdex […] column, Cytiva). The purified GST-SOS1 fragment was confirmed by SDS-PAGE and stored in 25 mM Tris-HCl, 100 mM NaCl, 1 mM DTT, 2.3% sucrose, 0.3% dextran-10, pH 7.5 at −80° C.
Kras-G12D Protein Purification. The sequence corresponding to human KRAS-G12D (residues 1-169, UniProt P01116-2; SEQ ID NO: 1) was synthesized and fused in frame with His-AVI-TEV vector. The plasmid was transformed into the E. coli strain BL21 (containing a plasmid that can generate BirA enzyme). Bacteria were growing at 37° C. in TB media containing 100 μg/ml ampicillin and 50 μg/ml Kanamycin to give OD600 of 0.6-0.8. The 0.5 mM IPTG and 50 mg/l biotin were added to induce protein expression for 16 hours at 25° C. Bacteria were harvested by centrifugation and stored at −80° C. Bacteria pellets were re-suspended in lysis buffer (20 mM Tris-HCl, 500 mM NaCl, 5 mM MgCl2, 2 mM […], 5% glycerol, pH 8.0) and lysed using high-pressure homogenizer. The lysate was cleared by centrifugation for 30 minutes (12000 rpm at 4° C.). The supernatant containing HIS-AVI-TEV-KRAS-G12D fragment was purified sequentially through Ni-NTA column (SMART), Streptactin column (SMART), and gel filtration (Hiload 16/600 Superdex 75 pg, GE). The purified HIS-AVI-TEV-KRAS-G12D fragment was confirmed by SDS-PAGE and stored in 50 mM HEPES-NaOH, 100 mM NaCl, 1 mM DTT, 5 mM MgCl2, pH 7.5 at −80° C.
Protein-Protein Interaction Assay. An assay buffer containing 50 mM HEPES, pH 7.5, 50 mM NaCl, 0.01% Brij-35, 1 mM TCEP, 0.1% BSA was prepared, and concentration series of test compounds were generated spanning from 0.5 nM to 10 μM over 10 3-fold serial dilutions in a 384-well assay plate at a volume of 20 pL. The purified GST-SOS1 catalytic domain (residues 564-1049) was first diluted in assay buffer and 5 μl of SOS1 (final concentration 2.5 nM in assay mixture) was directly dispensed into compound plates. After a spin down at 1000 RPM for 30 seconds, the SOS1/compound mixture was incubated at 25° C. for 15 minutes to allow the reaction between SOS1 and the compound. A KRAS-G12D mixture was prepared by incubation of avi-tagged Kras-G12D (residue 1-169) and GDP in assay buffer containing 10 mM MgCl2 at room temperature for 10 minutes. A KRAS-G12D and GDP mixture (5 μL) was added to the assay plate (final KRAS-G12D was 100 nM and GDP was 10 uM). The plate was centrifuged at 1000 rpm for 30 sec and incubated at 25° C. for 60 minutes. […]

| Structure (SMILES) | IC50 [nM] |
| --- | --- |
| C#C[C@@H](Nc1nc(C)nc2cc(=O)n([C@H]3C[C@H](F)C3)cc12)c1cccc(C(F)(F)F)c1C [Compound 10, 6-((1S,3S)-3-fluorocyclobutyl)-2-methyl-4-(((R)-1-(2-methyl-3-(trifluoromethyl)phenyl)prop-2-yn-1-yl)amino)pyrido[4,3-d]pyrimidin-7(6H)-one] | < 100 |
| C#C[C@@H](Nc1ncnc2cc(=O)n(C3(C(F)F)CC3)cc12)c1cccc(C(F)F)c1C [Compound 40, (R)-4-((1-(3-(difluoromethyl)-2-methylphenyl)prop-2-yn-1-yl)amino)-6-(1-(difluoromethyl)cyclopropyl)pyrido[4,3-d]pyrimidin-7(6H)-one] | < 100 |
| C#C[C@@H](Nc1nc(C)nc2cc(=O)n(C(C)C(F)(F)F)cc12)c1cccc(C(F)(F)F)c1C (mixture of isomers) [Compound 8, 2-methyl-4-(((R)-1-(2-methyl-3-(trifluoromethyl)phenyl)prop-2-yn-1-yl)amino)-6-(1,1,1-trifluoropropan-2-yl)pyrido[4,3-d]pyrimidin-7(6H)-one] | < 100 |
| C#C[C@@H](Nc1nc(C)nc2cc(=O)n(C3(C)CC3)cc12)c1cccc(C(F)(F)F)c1C [Compound 18, (R)-2-methyl-4-((1-(2-methyl-3-(trifluoromethyl)phenyl)prop-2-yn-1-yl)amino)-6-(1-methylcyclopropyl)pyrido[4,3-d]pyrimidin-7(6H)-one] | < 100 |
| C#C[C@@H](Nc1nc(C)nc2cc(=O)n(C3CC(F)(F)C3)cc12)c1cccc(C(F)(F)F)c1C [Compound 11, (R)-6-(3,3-difluorocyclobutyl)-2-methyl-4-((1-(2-methyl-3-(trifluoromethyl)phenyl)prop-2-yn-1-yl)amino)pyrido[4,3-d]pyrimidin-7(6H)-one] | < 100 |
| C#C[C@@H](Nc1nc(C)nc2cc(=O)n(C3(C#C)CC3)cc12)c1cccc(C(F)(F)F)c1C [Compound 5, (R)-6-(1-ethynylcyclopropyl)-2-methyl-4-((1-(2-methyl-3-(trifluoromethyl)phenyl)prop-2-yn-1-yl)amino)pyrido[4,3-d]pyrimidin-7(6H)-one] | < 100 |
| C#C[C@@H](Nc1nc(C)nc2c(Br)c(=O)n(C3(C(F)F)CC3)cc12)c1cccc(C(F)F)c1C [Compound 39, (R)-8-bromo-4-((1-(3-(difluoromethyl)-2-methylphenyl)prop-2-yn-1-yl)amino)-6-(1-(difluoromethyl)cyclopropyl)-2-methylpyrido[4,3-d]pyrimidin-7(6H)-one] | < 100 |
| C#C[C@@H](Nc1nc(C)nc2cc(=O)n(C34CC(C3)C4)cc12)c1cccc2c1CCC2(F)F [Compound 2, (R)-6-(bicyclo[1,1,1]pentan-1-yl)-4-((1-(1,1-difluoro-2,3-dihydro-1H-inden-4-yl)prop-2-yn-1-yl)amino)-2-methylpyrido[4,3-d]pyrimidin-7(6H)-one] | < 100 |
| C#C[C@@H](Nc1nc(C)nc2c(C)c(=O)n(C3(C)CC3)cc12)c1cccc(C(F)(F)F)c1C [Compound 28, (R)-2,8-dimethyl-4-((1-(2-methyl-3-(trifluoromethyl)phenyl)prop-2-yn-1-yl)amino)-6-(1-methylcyclopropyl)pyrido[4,3-d]pyrimidin-7(6H)-one] | < 100 |
| C#C[C@@H](Nc1nc(C)nc2cc(=O)n(C3(C(F)F)CC3)cc12)c1cccc(C(C)(F)F)c1F [Compound 25, (R)-4-((1-(3-(1,1-difluoroethyl)-2-fluorophenyl)prop-2-yn-1-yl)amino)-6-(1-(difluoromethyl)cyclopropyl)-2-methylpyrido[4,3-d]pyrimidin-7(6H)-one] | < 100 |
| C=C[C@@H](Nc1nc(C)nc2cc(=O)n(C3(C)CC3)cc12)c1cccc(C(F)(F)F)c1C [Compound 22, (R)-2-methyl-4-((1-(2-methyl-3-(trifluoromethyl)phenyl)allyl)amino)-6-(1-methylcyclopropyl)pyrido[4,3-d]pyrimidin-7(6H)-one] | < 100 |
| C#C[C@@H](Nc1nc(C)nc2cc(=O)n(C3(C)CC3)cc12)c1cccc(C(F)F)c1F [Compound 20, (R)-4-((1-(3-(difluoromethyl)-2-fluorophenyl)prop-2-yn-1-yl)amino)-2-methyl-6-(1-methylcyclopropyl)pyrido[4,3-d]pyrimidin-7(6H)-one] | < 100 |
| C#C[C@@H](Nc1nc(C)nc2cc(=O)n(C3(C#C)CC3)cc12)c1cccc(C(F)F)c1F [Compound 26, (R)-4-((1-(3-(difluoromethyl)-2-fluorophenyl)prop-2-yn-1-yl)amino)-6-(1-ethynlcyclopropyl)-2-methylpyrido [4,3-d]pyrimidin-7(6H)-one] | < 100 |
| C#C[C@@H](Nc1nc(C)nc2cc(=O)n(C3(C)CC3)cc12)c1cccc2c1OCC2(F)F [Compound 21, (R)-4-((1-(3,3-difluoro-2,3-dihydrobenzofuran-7-yl)prop-2-yn-1-yl)amino)-2-methyl-6-(1-methylcyclopropyl)pyrido[4,3-d]pyrimidin-7(6H)-one] | < 100 |
| C#C[C@@H](Nc1nc(C)nc2cc(=O)n(C3CC4(CNC4)C3)cc12)c1cccc(C(F)F)c1C [Compound 37, (R)-4-((1-(3-(difluoromethyl)-2-methylphenyl)prop-2-yn-1-yl)amino)-2-methyl-6-(2-azaspiro[3.3]heptan-6-yl)pyrido[4,3-d]pyrimidin-7(6H)-one] | < 100 |
| C#C[C@@H](Nc1nc(C)nc2cc(=O)n(C3(C(F)F)CC3)cc12)c1cccc(Br)c1F [Compound 41, (R)-4-((1-(3-bromo-2-fluorophenyl)prop-2-yn-1-yl)amino)-6-(1-(difluoromethyl)cyclopropyl)-2-methylpyrido[4,3-d]pyrimidin-7(6H)-one] | 100 to 200 |
| C#C[C@@H](Nc1nc(C)nc2cc(=O)n(C3(C)CC3)cc12)c1cccc2c1CCC2(F)F [Compound 23, (R)-4-((1-(1,1-difluoro-2,3-dihydro-1H-inden-4-yl)prop-2-yn-1-yl)amino)-2-methyl-6-(1-methylcyclopropyl)pyrido[4,3-d]pyrimidin-7(6H)-one] | < 100 |
